Assay results published in US20070134156A1, “Fatigue evaluation apparatus, fatigue evaluation method, and application thereof” (SOIKEN INC., priority 2004, published 2007).

Assay: Four hours of driving-simulator combined fatigue loading after intake of tryptophan; concentration of tryptophan in plasma
Format: in vivo, human
Text: Twelve healthy males who were in their twenties served as subjects. Each of the subjects was right-handed, had at least one year of experience as a licensed driver, and drove an ordinary motor vehicle at least once a week. Further, patients with sinus problems, smokers, users of drugs (such as caffeinated or spiced food products and anti-allergic drugs, which affect a central nervous system) were excluded.
The subject was subjected to driving work loading by using a driving simulator (ACCESS MASTER AM2330 manufactured by Tasknet Inc.).
In order to study an effect of tryptophan on fatigue, each of the subjects in a tryptophan group who received tryptophan before loading was subjected to four hours of simulator driving without a break, and each of the subjects in a placebo group who received a placebo before loading was subjected to four hours of simulator driving without a break. The same subject received 5 mg/kg of tryptophan or a placebo at least one week apart, and participated in the experiment.
Blood sample was taken from the subjects according to the experimental schedule shown in Table 4 so as to measure concentrations of amino acids in their plasma.

Compound: N[C@@H](Cc1c[nH]c2ccccc12)C(=O)O [tryptophan]
- concentration at 4 h (male, human, plasma, oral, tryptophan group, 5 mg/kg tryptophan taken before loading, after four hours of simulator driving, healthy males): 39 µM
- concentration of tryptophan in plasma before fatigue loading (tryptophan group (5 mg/kg tryptophan), blood sampled before intake and before four hours of simulator driving, healthy males): 43 µM
- change in concentration of tryptophan in plasma between before and after fatigue loading (tryptophan group, 5 mg/kg before loading, four hours of simulator driving, placebo group showed a significant decrease): no significant decrease
